# Values quoted from earlier work in patent publication US20030199492A1, “Combination therapy” (priority 1997, published 2003).
# Experiments:
# [1] = system: calcium channel
# [2] = system: smooth muscle cell migration
structure (smiles),measurement,setting,value
"CCOC(=O)C1=C(COCCN)NC(C)=C(C(=O)OC)C1c1ccccc1Cl (single isomer, unassigned) [R(+) isomer, amlodipine]",calcium channel blocking activity,[1],little or no calcium channel blocking activity
same,inhibition of smooth muscle cell migration,[2],potent inhibitor of smooth muscle cell migration
